Measurements taken from patent publication US11964973B2 (priority 2019, dated 2024).
Where two headings read alike, the source gives them in different places.

How the values were obtained:
[1] = tested on: Human venous whole blood (IFN-γ); assay: Human whole blood IFN-γ assay; type: cell-based
Description: Assay 10: Human Whole Blood IFN-γ Assay
Human venous whole blood (22.5 μL per well), obtained from healthy donors, was pre-treated with compounds for one hour at 37° C. in a humidified 95% air/5% CO2 incubator. The blood was stimulated with 2.5 μL anti-human CD3 and anti-CD28 mAb at a final concentration of 1 μg/mL each for 24 hours at 37° C. IFN-γ in the supernatants was measured using AlphLISA kit (Cat #AL217).

human DGKζ = human DGKζ (Homo sapiens (Human), UniProt Q13574); assay: biochemical; type: biochemical
Sequence of human DGKζ (Q13574 whole entry, looked up): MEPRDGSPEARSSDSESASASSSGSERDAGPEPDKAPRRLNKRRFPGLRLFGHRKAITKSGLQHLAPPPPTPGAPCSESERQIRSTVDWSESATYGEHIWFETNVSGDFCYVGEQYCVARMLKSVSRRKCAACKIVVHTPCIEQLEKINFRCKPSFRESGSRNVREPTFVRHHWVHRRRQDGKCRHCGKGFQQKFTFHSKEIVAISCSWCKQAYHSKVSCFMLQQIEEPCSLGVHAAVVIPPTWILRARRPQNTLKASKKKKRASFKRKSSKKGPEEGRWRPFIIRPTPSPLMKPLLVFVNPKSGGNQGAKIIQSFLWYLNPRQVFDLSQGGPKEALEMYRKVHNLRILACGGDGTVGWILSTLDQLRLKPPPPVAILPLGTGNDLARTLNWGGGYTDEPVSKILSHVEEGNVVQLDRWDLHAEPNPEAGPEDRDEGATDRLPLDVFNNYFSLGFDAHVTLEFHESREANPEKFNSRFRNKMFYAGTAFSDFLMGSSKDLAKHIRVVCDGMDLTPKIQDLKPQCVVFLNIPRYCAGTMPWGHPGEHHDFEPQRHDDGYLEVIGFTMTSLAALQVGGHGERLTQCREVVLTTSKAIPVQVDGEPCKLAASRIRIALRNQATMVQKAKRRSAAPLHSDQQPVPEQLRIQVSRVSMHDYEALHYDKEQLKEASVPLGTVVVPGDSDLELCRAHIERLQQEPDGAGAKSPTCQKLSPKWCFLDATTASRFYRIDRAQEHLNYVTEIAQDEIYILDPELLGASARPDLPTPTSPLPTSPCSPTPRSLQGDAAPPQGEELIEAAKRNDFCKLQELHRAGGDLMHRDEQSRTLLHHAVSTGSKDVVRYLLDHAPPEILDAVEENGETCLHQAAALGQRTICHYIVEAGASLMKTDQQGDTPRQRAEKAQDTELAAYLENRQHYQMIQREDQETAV

DGKα = DGKα (Homo sapiens (Human), UniProt P23743); assay: biochemical; type: biochemical
Sequence of DGKα (P23743 whole entry, looked up): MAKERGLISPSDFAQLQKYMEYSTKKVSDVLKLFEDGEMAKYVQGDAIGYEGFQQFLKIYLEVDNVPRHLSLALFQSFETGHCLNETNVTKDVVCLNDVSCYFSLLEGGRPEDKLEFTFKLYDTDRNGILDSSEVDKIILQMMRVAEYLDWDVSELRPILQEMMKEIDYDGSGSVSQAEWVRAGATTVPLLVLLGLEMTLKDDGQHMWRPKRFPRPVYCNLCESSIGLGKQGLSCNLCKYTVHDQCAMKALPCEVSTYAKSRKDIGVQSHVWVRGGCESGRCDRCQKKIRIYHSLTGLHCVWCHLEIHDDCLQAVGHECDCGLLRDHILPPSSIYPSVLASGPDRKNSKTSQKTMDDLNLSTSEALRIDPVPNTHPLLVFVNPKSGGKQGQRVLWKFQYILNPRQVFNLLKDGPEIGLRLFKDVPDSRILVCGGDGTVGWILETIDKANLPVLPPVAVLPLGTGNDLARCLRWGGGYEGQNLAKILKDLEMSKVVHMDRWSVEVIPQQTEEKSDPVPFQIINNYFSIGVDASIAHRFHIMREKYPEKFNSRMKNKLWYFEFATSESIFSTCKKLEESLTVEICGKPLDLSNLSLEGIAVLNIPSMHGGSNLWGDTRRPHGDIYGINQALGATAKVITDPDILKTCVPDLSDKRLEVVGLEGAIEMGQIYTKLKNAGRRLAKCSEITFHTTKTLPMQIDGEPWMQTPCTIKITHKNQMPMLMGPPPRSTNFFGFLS

[2] = Homo sapiens, 24 h, human whole blood, anti-CD3 plus anti-CD28, 24 hours, read-out: INFg Whole Blood Normalized Agonist EC50
[3] = liposome (LIPGLO) assay, read-out: DGKζ LIPGLO IC50
[4] = liposome (LIPGLO) assay, read-out: DGKα LIPGLO IC50
[5] = human whole blood, anti-CD3 plus anti-CD28, 24 hours, read-out: INFg Whole Blood Normalized Agonist EC50
[6] = Table A, liposome (LIPGLO) assay, read-out: DGKζ
[7] = Table A, liposome (LIPGLO) assay, read-out: DGKα

Structure (SMILES) | EC50 [1, 2] [nM] | IC50 (human DGKζ; [3]) [nM] | IC50 (DGKα; [4]) [nM] | EC50 [1, 5] [nM] | also measured
Cc1cccc(O[C@@H]2CCN(c3cc(=O)n(C)c4ccc(C#N)nc34)C[C@H]2C)c1 (single isomer, unassigned) [Example 108] | 3000 | 11000 | 910 |  | 
Cc1cccc(O[C@@H]2CCN(c3cc(=O)n(C)c4ccc(C#N)nc34)C[C@H]2C)c1 (single isomer, unassigned) [Example 109] |  | 29000 | 120 | 4200 | 
C[C@@H]1CN(c2cc(=O)n(C)c3ccc(C#N)nc23)CC[C@H]1Oc1ccc(F)cc1C(F)(F)F (single isomer, unassigned) [Example 117] | 4600 | 20000 | 2000 |  | 
C[C@@H]1CN(c2cc(=O)n(C)c3ccc(C#N)nc23)CC[C@H]1Oc1ccc(F)cc1C(F)(F)F (single isomer, unassigned) [Example 118] |  | 52000 | 250 | 4700 | 
Cc1ccc(O[C@@H]2CCN(c3cc(=O)n(C)c4ccc(C#N)nc34)C[C@H]2C)cc1 (single isomer, unassigned) [Example 120] | 4700 | 73000 | 350 |  | 
Cc1ccc(O[C@@H]2CCN(c3cc(=O)n(C)c4ccc(C#N)nc34)C[C@H]2C)cc1 (single isomer, unassigned) [Example 121] |  | 9900 | 1800 | 6700 | 
CC[C@@H]1CN(c2cc(=O)n(C)c3ccc(C#N)nc23)CC[C@H]1Oc1cccc(C(F)(F)F)c1 (single isomer, unassigned) [Example 141] |  | 260 | 68 | 500 | 
CC[C@@H]1CN(c2cc(=O)n(C)c3ccc(C#N)nc23)CC[C@H]1Oc1cccc(C(F)(F)F)c1 (single isomer, unassigned) [Example 142] |  | 1100 | 4700 | 3000 | 
CC[C@@H]1CN(c2cc(=O)n(C)c3ccc(C#N)nc23)CC[C@H]1Oc1ccc(OC(C)(C)C)cc1 (single isomer, unassigned) [Example 159] | 4200 | 2300 | 130 |  | 
CC[C@@H]1CN(c2cc(=O)n(C)c3ccc(C#N)nc23)CC[C@H]1Oc1ccc(OC(C)(C)C)cc1 (single isomer, unassigned) [Example 160] |  | 3300 | 1700 | 4500 | 
CCC(C)(C)c1ccc(O[C@H]2CCN(c3cc(=O)n(C)c4ccc(C#N)nc34)C[C@H]2C)cc1 (single isomer, unassigned) [Example 171] |  |  |  | 3000 | IC50 (human DGKζ; read-out: DGKζ LIPGLO IC50): 3700 nM; IC50 (DGKα; read-out: DGKα LIPGLO IC50): 1400 nM
CC(C)c1ccc(O[C@H]2CCN(c3cc(=O)n(C)c4ccc(C#N)nc34)C[C@H]2C)cc1 (single isomer, unassigned) [Example 177] | 3500 | 1100 | 140 |  | 
CC(C)c1ccc(O[C@H]2CCN(c3cc(=O)n(C)c4ccc(C#N)nc34)C[C@H]2C)cc1 (single isomer, unassigned) [Example 183] |  |  |  |  | EC50 ([1]; Homo sapiens, human whole blood IFN-γ, read-out: INFg Whole Blood): 2600 nM; IC50 (human DGKζ; [6]): 940 nM; IC50 (DGKα; [7]): 710 nM
CC(C)c1ccc(O[C@H]2CCN(c3cc(=O)n(C)c4ccc(C#N)nc34)C[C@H]2C)cc1 (single isomer, unassigned) [Example 184] |  |  |  |  | EC50 ([1]; human whole blood IFN-γ, read-out: INFg Whole Blood): 4000 nM; IC50 (human DGKζ; [6]): 6000 nM; IC50 (DGKα; [7]): 1400 nM
CC[C@@H]1CN(c2cc(=O)n(C)c3ccc(C#N)nc23)CC[C@H]1Oc1cccc(C(C)(C)C)c1 (single isomer, unassigned) [Example 198] |  |  |  |  | EC50 ([1]; read-out: INFg Whole Blood, human whole blood IFN-γ): 3100 nM; IC50 (human DGKζ; [6]): 1300 nM; IC50 (DGKα; [7]): 160 nM
CCC(C)(C)c1ccc(OC2CCN(c3cc(=O)n(C)c4ccc(C#N)nc34)CC2)cc1 [Example 54, 5-methyl-6-oxo-8-(4-(4-(tert-pentyl)phenoxy)piperidin-1-yl)-5,6-dihydro-1,5-naphthyridine-2-carbonitrile] | 2300 | 2100 | 540 |  | 
